Results on one compound are retold here after US20180250306A1, “ALDEHYDE CONJUGATES AND USES THEREOF” (ALDEYRA THERAPEUTICS, INC., priority 2015, published 2018).

One series concerns SSADH null mice. Kind of series: Eight-hour NS2 treatment (metabolite) study in wild type and SSADH null mice. The series is classed as in vivo. The text has this: Mice were 22-23 days old on the day of treatment, and groups (n=3) were balanced for age and gender. […] Future studies in this model will encompass a dose-finding paradigm to ensure adequate target exposure; dose earlier in life; and increase group sizes.
The design of the study was as follows: • Treatment groups were balanced for date of birth, gender, and weight. • SSADH null mice were generated by crossing mice heterozygous for SSADH deficiency. Expected number of null progeny is 1 in 4. Seven SSADH null mice were generated from this breeding, of which three were assigned to group 3 and four were assigned to group 4.
• On the day of dosing, NS2 and vehicle were brought to room temperature. […] This working solution was prepared at room temperature, using aseptic technique in the animal dosing suite, and was used within one hour of preparation. • Dosing volume was ˜0.4 μL/g body weight for both mutant and wild-type subjects (note: the average body weight for the SSADH null mice is ˜4.9±0.9 g, and that of age-matched wild-type littermate is 10.2±0.9 g). DMSO total dose is weight normalized. • Leftover working solutions were discarded.
Organs were snap frozen in liquid nitrogen for biochemical analysis and stored at −80° C. • A terminal cardiac blood sample was obtained in a standard microtainer for serum collection. Serum was prepared by centrifugation for 10 minutes at […] (2500×g) and stored at −80° C. until analyses. […]
Plasma and tissue homogenates were shipped to the laboratory of Professor Gajja Salomons (VU Medical Center, Amsterdam, the Netherlands) on May 11, 2015. SSA, GHB and D2HG levels were assayed in the Salomons laboratory using the following published methods: 1) “Stable isotope dilution analysis of 4-hydroxybutyric acid: an accurate method for quantification in physiological fluids and the prenatal diagnosis of 4-hydroxybutyric aciduria,” Gibson et al., 1990, Biomed Environ Mass Spectrom. […]

Series [1] concerns Primary rat cortical cultures. Kind of series: LDH cytotoxicity assay, aldehyde-mediated cell death in neurons. The series is classed as cell-based. As for the experimental part:
Primary rat cortical cultures are placed in an incubator for 24 or 48 hours and treated with various concentrations of disclosed compounds. Then 20 μL of the culture media is removed for an LDH assay as described in Bergmeyer et al., Methods of Enzymatic Analysis, 3rd ed. (1983).

For another series, the system named is cardiac fibroblasts. In words: Fibroblast activation to myofibroblast phenotype, immunostaining for α-SMA and vimentin. The series is classed as cell-based, neonatal rats. How it is done: Thirty hearts from neonatal rats were minced and digested (Neonatal Cardiomyocyte Isolation System, LK003303, Worthington). After tissue digestion and cell dissociation, cell suspensions were plated into 35 mm dishes or onto coverslips in wells of 24-well plates. Serum-free DMEM was added to the cell suspensions and the cells allowed to adhere for 2 hrs. After two hours, the cell suspension was removed and the adherent cells were fed with DMEM containing 10% fetal bovine serum (FBS). Cells were maintained in DMEM+10% FBS for 24 hours before treatments. Treatment duration was 24 hours.
Cell samples were divided in to 2 groups, stimulated with H2O2 or not stimulated with H2O2. […] The cells that were treated with H2O2 contained a final concentration of 0.001% in the wells. Drug was dissolved in 9.5% Captisol®, to a stock concentration of 5 mg/ml. […] Cells were treated for 24 hours then either fixed for immunostaining or collected as lysates for Western Blot analysis.
After 24 hours of treatment, cells on cover slips were rinsed twice with PBS, fixed in 1% paraformaldehyde for 10 minutes then rinsed in PBS for immunostaining. Cells were permeabilized for 18 minutes in 0.1% Triton-X 100 in PBS, then rinsed three times in PBS for 15 minutes each. Following the rinses, cover slips were incubated in Image-IT FX Signal Enhancer (Invitrogen) to reduce background intensities in images. Subsequently, cells were washed three times 15 min with PBS, followed by one hour of blocking in 10% Normal Goat Serum Cells and 0.05% Triton-X 100, and then incubated overnight in 4° C. with primary antibodies diluted in PBS with 2% Normal Goat Serum and 0.05% Triton-X 100. Antibodies were applied at the following concentrations: Alpha-Smooth Muscle Actin 1:200 (V5228, Sigma-Aldrich), Vimentin 1:200 (V6630, Sigma-Aldrich) and NFκB 1:200 (C-20, Santa Cruz Biotech). Following overnight incubation, cover slips were brought to room temperature over 10 minutes and then rinsed in PBS for 15 min. Following 1 hour of incubation in the dark with secondary antibodies (1:100 in PBS, A-21127 and A-21136, Life Technologies), cover slips were rinsed 3 times for 15 min in PBS, incubated in the dark with DAPI (Invitrogen, 1:600) for 10 minutes, and then rinsed for 3 times in PBS. Cover slips were then mounted upside down on glass slides and examined using a Leica SP8 confocal microscope equipped with a 10× air lens. Images were taken as described and split into channels. Each channel was reviewed by eye to determine if NFκB was in the nucleus or in the cytosol.

The mark [2] stands for this setting: SSADH null mice, 8 hours after single 10 mg/kg i.p.

Consider `CC(C)(O)c1nc2ccc(Cl)cc2cc1N` [NS2, 2-(3-amino-6-chloroquinolin-2-yl)propan-2-ol], for which the “GHB and D-2-HG in liver” value in the series on SSADH null mice (setting [2]) is reported as “tendency for decrease”. Besides, the “change in levels of metabolites (GHB, SSA, D-2-HG)” value in the series with SSADH null mice (setting [2]) was “no statistically significant changes”. In the series on SSADH null mice (mouse, in vivo, ip, 10 mg/kg), the tolerability entry is reported as “well-tolerated”. The “aldehyde-mediated cell death in neurons” value in series [1] was “prevent”. Besides, the cell morphology entry is “morphology of a non-activated fibroblast” in the series on cardiac fibroblasts (1 mM, cells stimulated with H2O2 or not) and “morphology more like that of a non-activated fibroblast” with cardiac fibroblasts (unstimulated cells, 100 μM). Further, in the series on cardiac fibroblasts (H2O2 stimulated cells, 10 μM, 24 hours), the “α-SMA production and morphology change (immunostaining)” value is listed as “little effect”. Also, the “α-SMA production (immunostaining)” value with cardiac fibroblasts (H2O2 stimulated cells, 100 μM, 24 hours) is reported as “clear inhibition”; in the series with cardiac fibroblasts (unstimulated cells, 10 μM, 24 hours), “little effect”; in the series on cardiac fibroblasts (unstimulated cells, 100 μM, 24 hours), “inhibited the production of α-SMA”; in the series on cardiac fibroblasts (unstimulated cells, 1 mM, 24 hours), “appeared to limit the production of α-SMA”. Besides, in the series on cardiac fibroblasts (unstimulated cells, 10 μM), the “cell shape of activated myofibroblasts” value was “does not change”.
